Reference: US20120029085A1, “STABILIZATION OF QUINOL COMPOSITION SUCH AS CATECHOLAMINE DRUGS” (priority 2010, published 2012)
One block for each compound: values may come before it.

Legend:
[1] = cited from earlier work
[2] = Percent protonated (RNH+) and unprotonated (RN) amine form of local anesthetics as a function of pH; format: physicochemical; details: for % RNH(+) at pH 5.0: pH 5.0, protonated form; for % RN at pH 5.0: pH 5.0, unprotonated form; for % RNH(+) at pH 6.5: pH 6.5, protonated form; for % RN at pH 6.5: pH 6.5, unprotonated form; for % RNH(+) at pH 7.4: pH 7.4, protonated form; for % RN at pH 7.4: pH 7.4, unprotonated form
Description: According to the Henderson-Hasselbalch equation:
pH=pKa+log([A^−]/[HA]) (I)

[3] = amine group of the local anesthetic; cited from earlier work
[4] = cystine/cysteine redox couple; cited from earlier work

% RNH(+) at pH 5.0 [2]: 99.80% | % RN at pH 5.0 [2]: 0.20% | % RNH(+) at pH 6.5 [2]: 94.06% | % RN at pH 6.5 [2]: 5.94% | % RNH(+) at pH 7.4 [2]: 66.61% | % RN at pH 7.4 [2]: 33.39%
SMILES: CCCN(CC)C(CC)C(=O)Nc1c(C)cccc1C (stereo not drawn) [Etidocaine]

% RNH(+) at pH 5.0 [2]: 99.87% | % RN at pH 5.0 [2]: 0.13% | % RNH(+) at pH 6.5 [2]: 96.17% | % RN at pH 6.5 [2]: 3.83% | % RNH(+) at pH 7.4 [2]: 75.97% | % RN at pH 7.4 [2]: 24.03%
SMILES: CCN(CC)CC(=O)Nc1c(C)cccc1C [Lidocaine]

% RNH(+) at pH 5.0 [2]: 99.75% | % RN at pH 5.0 [2]: 0.25% | % RNH(+) at pH 6.5 [2]: 92.64% | % RN at pH 6.5 [2]: 7.36% | % RNH(+) at pH 7.4 [2]: 61.31% | % RN at pH 7.4 [2]: 38.69%
SMILES: Cc1cccc(C)c1NC(=O)C1CCCCN1C (stereo not drawn) [Mepivacaine]

% RNH(+) at pH 5.0 [2]: 99.87% | % RN at pH 5.0 [2]: 0.13% | % RNH(+) at pH 6.5 [2]: 96.17% | % RN at pH 6.5 [2]: 3.83% | % RNH(+) at pH 7.4 [2]: 75.97% | % RN at pH 7.4 [2]: 24.03%
SMILES: CCCNC(C)C(=O)Nc1ccccc1C (stereo not drawn) [Prilocaine]

% RNH(+) at pH 5.0 [2]: 99.99% | % RN at pH 5.0 [2]: 0.01% | % RNH(+) at pH 6.5 [2]: 99.60% | % RN at pH 6.5 [2]: 0.40% | % RNH(+) at pH 7.4 [2]: 96.93% | % RN at pH 7.4 [2]: 3.07%
SMILES: CCN(CC)CCOC(=O)c1ccc(N)cc1 [Procaine]

% RNH(+) at pH 5.0 [2]: 99.92% | % RN at pH 5.0 [2]: 0.08% | % RNH(+) at pH 6.5 [2]: 97.55% | % RN at pH 6.5 [2]: 2.45% | % RNH(+) at pH 7.4 [2]: 83.37% | % RN at pH 7.4 [2]: 16.63%
SMILES: CCCN1CCCC[C@H]1C(=O)Nc1c(C)cccc1C [Ropivacaine]

% RNH(+) at pH 5.0 [2]: 99.94% | % RN at pH 5.0 [2]: 0.06% | % RNH(+) at pH 6.5 [2]: 98.04% | % RN at pH 6.5 [2]: 1.96% | % RNH(+) at pH 7.4 [2]: 86.32% | % RN at pH 7.4 [2]: 13.68%
SMILES: CCCCNc1ccc(C(=O)OCCN(C)C)cc1 [Tetracaine]

Further lines, the compound ahead of its results:

SMILES: NC(=O)CN(CC(=O)O)CC(=O)O [ADA]
pKa ([1]; Table 3, buffer): 6.60

SMILES: CCCNC(C)C(=O)Nc1c(C)csc1C(=O)OC (stereo not drawn) [Articaine]
% RNH(+) at pH 5.0 [2]: 99.84% | % RN at pH 5.0 [2]: 0.16% | % RNH(+) at pH 6.5 [2]: 95.23% | % RN at pH 6.5 [2]: 4.77% | % RNH(+) at pH 7.4 [2]: 71.53% | % RN at pH 7.4 [2]: 28.47%

SMILES: O=S(=O)(O)CCN(CCO)CCO [BES]
pKa ([1]; Table 3, buffer): 7.09

SMILES: CCOC(=O)c1ccc(N)cc1 [Benzocaine]
% RNH(+) at pH 5.0 [2]: 0.99% | % RN at pH 5.0 [2]: 99.01% | % RNH(+) at pH 6.5 [2]: 0.03% | % RN at pH 6.5 [2]: 99.97% | % RNH(+) at pH 7.4 [2]: 0.00% | % RN at pH 7.4 [2]: 100.00% | pKa (amine) [3]: 3

SMILES: OCC(CO)(CO)NCCCNC(CO)(CO)CO [Bis-Tris Propane]
pKa1 ([1]; Table 3, buffer, first dissociation): 6.80

SMILES: CCCCN1CCCCC1C(=O)Nc1c(C)cccc1C (stereo not drawn) [Bupivacaine]
% RNH(+) at pH 5.0 [2]: 99.92% | % RN at pH 5.0 [2]: 0.08% | % RNH(+) at pH 6.5 [2]: 97.55% | % RN at pH 6.5 [2]: 2.45% | % RNH(+) at pH 7.4 [2]: 83.37% | % RN at pH 7.4 [2]: 16.63%

SMILES: CCN(CC)CCOC(=O)c1ccc(N)cc1Cl [Chloroprocaine]
% RNH(+) at pH 5.0 [2]: 99.98% | % RN at pH 5.0 [2]: 0.02% | % RNH(+) at pH 6.5 [2]: 99.37% | % RN at pH 6.5 [2]: 0.63% | % RNH(+) at pH 7.4 [2]: 95.23% | % RN at pH 7.4 [2]: 4.77% | pKa (amine) [3]: 8.7

SMILES: CCCCOc1cc(C(=O)NCCN(CC)CC)c2ccccc2n1 [Dibucaine]
% RNH(+) at pH 5.0 [2]: 99.98% | % RN at pH 5.0 [2]: 0.02% | % RNH(+) at pH 6.5 [2]: 99.50% | % RN at pH 6.5 [2]: 0.50% | % RNH(+) at pH 7.4 [2]: 96.17% | % RN at pH 7.4 [2]: 3.83% | pKa (amine) [3]: 8.8

SMILES: O=S(=O)(O)CCCCN1CCOCC1 [MOBS]
pKa ([1]; Table 3, buffer): 7.60

SMILES: O=C(O)CC(O)C(=O)O (stereo not drawn) [Malate]
pKa2 ([1]; Table 3, buffer, second dissociation): 5.13

SMILES: O=S(=O)(O)CCNC(CO)(CO)CO [TES]
pKa ([1]; Table 3, buffer): 7.50

SMILES: O=C(O)CNC(CO)(CO)CO [Tricine]
pKa ([1]; Table 3, buffer): 8.05

SMILES: N[C@@H](CS)C(=O)O [cysteine]
standard reduction potential E° [4]: −0.34 V

SMILES: CCC(CC)(C(=O)O)C(=O)O [diethylmalonic acid]
pKa (value in parentheses after the buffer name) ([1]; text list of pH buffers, b28): 7.2
